Experimental data reported in patent US20260174878A1, “IRAK4 DEGRADATION AGENT AND USE THEREOF” (LEADINGTAC PHARMACEUTICAL (SHAOXING) CO., LTD., priority 2022, published 2026).

target: T1, IRAK4 protein in normal human PBMCs (Homo sapiens, UniProt Q9NWZ3); test: Degradation of IRAK4 protein in normal human PBMCs (AlphaLISA); format: cell-based; conditions: 24 h incubation
T1 construct: host or cells: normal human PBMCs
T1 sequence (Q9NWZ3 1-460): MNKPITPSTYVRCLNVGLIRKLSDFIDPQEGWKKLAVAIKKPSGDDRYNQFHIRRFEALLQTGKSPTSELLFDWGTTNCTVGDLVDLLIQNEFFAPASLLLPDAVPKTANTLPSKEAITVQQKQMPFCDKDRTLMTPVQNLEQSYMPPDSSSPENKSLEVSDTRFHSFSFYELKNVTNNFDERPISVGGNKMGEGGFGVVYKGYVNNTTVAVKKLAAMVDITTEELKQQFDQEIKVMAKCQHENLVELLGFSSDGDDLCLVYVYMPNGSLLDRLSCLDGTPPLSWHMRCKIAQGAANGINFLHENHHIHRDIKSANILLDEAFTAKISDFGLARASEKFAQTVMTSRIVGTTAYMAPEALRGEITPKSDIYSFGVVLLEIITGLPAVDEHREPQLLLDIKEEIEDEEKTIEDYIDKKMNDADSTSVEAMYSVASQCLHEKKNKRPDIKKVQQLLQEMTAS
Procedure: The cryopreserved normal human PBMCs (Milestone, PB010C) were thawed and resuspended in RPMI 1640 medium (Gibco, A1049101) supplemented with 10% fetal bovine serum (Gibco, 10099141), 100 U/mL penicillin, and 100 µg/mL streptomycin (Gibco, 15140122). After 0.95 mL of cells were plated in each well of a 24-well cell culture plate, 50 µL of diluted compound solution was added to corresponding wells with cells, such that the final concentration of the compound fell within the range of 0.01-3000 nM. The final concentration of DMSO was 0.25%. After the compound-treated cell plate was incubated in an incubator at 37° C. with 5% CO2 for 24 h, the cells were collected into 1.5 mL centrifuge tubes and centrifuged at 1000 rpm at 4° C. for 5 min. The cell pellets were washed twice with 1×DPBS. The resuspended cells were lysed with 100 μL of lysis buffer, left to stand on ice for 30 min, and then centrifuged at 14000 g at 4° C. for 10 min. The samples of the cell lysate supernatant after centrifugation were cryopreserved at −80° C. before testing. The cell lysis buffer was a Western and IP cell lysis buffer (Beyotime, P0013) supplemented with 1 mM phenylmethylsulfonyl fluoride and a protease inhibitor cocktail (Beyotime, P1008).
The total protein concentrations of the cell lysate samples were determined using a BCA protein quantification kit (Tiangen, PA115-02).
The prepared PBMC lysate samples were assayed for IRAK4 concentrations using a human IRAK4 AlphaLISA assay kit (PerkinElmer, AL3117C) to determine the degradation effects of the compounds on IRAK4. The method is as follows:
5 μL of each of IRAK4 standard solutions with different concentrations and test samples of cell lysate supernatant were added to a white 384-well plate (PerkinElmer, 6007299), and then 10 μL of 5× anti-IRAK4 […] beads was added to each well (final concentration of 10 μg/mL). The plate was incubated at room temperature for 30 min. Then 10 μL of 5× biotin-labeled anti-IRAK4 antibody was added to each well (final concentration of 1 nM), and the plate was incubated at room temperature for another 60 min. Finally, 25 μL of 2× streptavidin-labeled donor beads was added to each well (final concentration of 40 μg/mL), and the plate was incubated at room temperature for another 30 min. After the incubation was completed, AlphaLISA signal values were measured on a microplate reader EnVision (PerkinElmer, 2105) in the AlphaScreen standard mode. A standard curve was plotted from the AlphaLISA signal values of the IRAK4 standard solutions with different concentrations, and the IRAK4 concentration of each cell lysate supernatant was determined according to the corresponding concentrations on the standard curve for the AlphaLISA signal values of the test samples and by performing corresponding correction on the total protein concentration of each sample obtained by BCA quantification. The degradation rates for the compounds at each concentration were calculated by comparing the IRAK4 concentration with that of the control group. Then non-linear curve fittings for logarithmic concentration-inhibition rate were performed using GraphPad Prism 8, and the DC50 and Dmax values of the compound were obtained.

Row | SMILES | DC50 [nM] | Dmax [%]
1 | COc1ccc(C(=O)N2CCC3(CCC(CN4CCC(n5cc(NC(=O)c6cnn7ccc(N8CC9CCC(C8)O9)nc67)c(C(F)F)n5)CC4)CC3)CC2)cc1N1CCC(=O)NC1=O [Example 6, 5-(8-oxa-3-azabicyclo[3.2.1]octan-3-yl)-N-(3-(difluoromethyl)-1-(1-((3-(3-(2,4-dioxotetrahydropyrimidin-1(2H)-yl)-4-methoxybenzoyl)-3-azaspiro[5.5]undecan-9-yl)methyl)piperidin-4-yl)-1H-pyrazol-4-yl)pyrazolo[1,5-a]pyrimidine-3-carboxamide] | 0.56 | 97.9
2 | O=C1CCN(c2cc(C(=O)N3CCC4(CCC(CN5CCC(n6cc(NC(=O)c7cnn8ccc(N9CCNCC9)nc78)c(C(F)F)n6)CC5)CC4)CC3)ccc2Cl)C(=O)N1 [Example 5, N-(1-(1-((3-(4-chloro-3-(2,4-dioxotetrahydropyrimidin-1(2H)-yl)benzoyl)-3-azaspiro[5.5]undecan-9-yl)methyl)piperidin-4-yl)-3-(difluoromethyl)-1H-pyrazol-4-yl)-5-(piperazin-1-yl)pyrazolo[1,5-a]pyrimidine-3-carboxamide] | 0.6 | 98.8
3 | Cc1ccc(C(=O)N2CCC3(CCC(CN4CCC(n5cc(NC(=O)c6cnn7ccc(N8CCS(=O)(=O)CC8)nc67)c(C(F)F)n5)CC4)CC3)CC2)cc1N1CCC(=O)NC1=O [Example 22, N-(3-(difluoromethyl)-1-(1-((3-(3-(2,4-dioxotetrahydropyrimidin-1(2H)-yl)-4-methylbenzoyl)-3-azaspiro[5.5]undecan-9-yl)methyl)piperidin-4-yl)-1H-pyrazol-4-yl)-5-(1,1-dioxothiomorpholinyl)pyrazolo[1,5-a]pyrimidine-3-carboxamide] | 0.53 | 98.1
4 | O=C1CCN(c2cc(C(=O)N3CCC4(CCC(CN5CCC(n6cc(NC(=O)c7cnn8ccc(N9CCOCC9)nc78)c(C(F)F)n6)CC5)CC4)CC3)ccc2Cl)C(=O)N1 [Example 4, N-(1-(1-((3-(4-chloro-3-(2,4-dioxotetrahydropyrimidin-1(2H)-yl)benzoyl)-3-azaspiro[5.5]undecan-9-yl)methyl)piperidin-4-yl)-3-(difluoromethyl)-1H-pyrazol-4-yl)-5-morpholinopyrazolo[1,5-a]pyrimidine-3-carboxamide] | 0.39 | 97.2
5 | Cc1ccc(C(=O)N2CCC3(CCC(CN4CCC(n5cc(NC(=O)c6cnn7ccc(N8CC9(COC9)C8)nc67)c(C(F)F)n5)CC4)CC3)CC2)cc1N1CCC(=O)NC1=O [Example 24, N-(3-(difluoromethyl)-1-(1-((3-(3-(2,4-dioxotetrahydropyrimidin-1(2H)-yl)-4-methylbenzoyl)-3-azaspiro[5.5]undecan-9-yl)methyl)piperidin-4-yl)-1H-pyrazol-4-yl)-5-(2-oxa-6-azaspiro[3.3]heptan-6-yl)pyrazolo[1,5-a]pyrimidine-3-carboxamide] | 0.48 | 96.2
6 | COc1ccc(C(=O)N2CCC3(CCC(CN4CCC(n5cc(NC(=O)c6cnn7ccc(N8C[C@H]9C[C@@H]8CO9)nc67)c(C(F)F)n5)CC4)CC3)CC2)cc1N1CCC(=O)NC1=O [Example 3, 5-((1R,4R)-2-oxa-5-azabicyclo[2.2.1]heptan-5-yl)-N-(3-(difluoromethyl)-1-(1-((3-(3-(2,4-dioxotetrahydropyrimidin-1(2H)-yl)-4-methoxybenzoyl)-3-azaspiro[5.5]undecan-9-yl)methyl)piperidin-4-yl)-1H-pyrazol-4-yl)pyrazolo[1,5-a]pyrimidine-3-carboxamide] | 0.28 | 97.7
7 | O=C1CCN(c2cc(C(=O)N3CCC(CCCCN4CCC(n5cc(NC(=O)c6cnn7ccc(N8C[C@H]9C[C@@H]8CO9)nc67)c(C(F)F)n5)CC4)CC3)ccc2Cl)C(=O)N1 [Example 7, 5-((1R,4R)-2-oxa-5-azabicyclo[2.2.1]heptan-5-yl)-N-(1-(1-(4-(1-(4-chloro-3-(2,4-dioxotetrahydropyrimidin-1(2H)-yl)benzoyl)piperidin-4-yl)butyl)piperidin-4-yl)-3-(difluoromethyl)-1H-pyrazol-4-yl)pyrazolo[1,5-a]pyrimidine-3-carboxamide] | 0.39 | 98.1

Further lines, results first:

Row | DC50 [nM] | Dmax [%] | SMILES
8 | 1.56 | 99.1 | O=C1CCN(c2cc(C(=O)N3CCC4(CCN(C[C@H]5CC[C@H](n6cc(NC(=O)c7cnn8ccc(N9C[C@H]%10C[C@@H]9CO%10)nc78)c(C(F)F)n6)CC5)CC4)CC3)ccc2Cl)C(=O)N1 [Example 2, 5-((1R,4R)-2-oxa-5-azabicyclo[2.2.1]heptan-5-yl)-N-(1-((1r,4R)-4-((9-(4-chloro-3-(2,4-dioxotetrahydropyrimidin-1(2H)-yl)benzoyl)-3,9-diazaspiro[5.5]undecan-3-yl)methyl)cyclohexyl)-3-(difluoromethyl)-1H-pyrazol-4-yl)pyrazolo[1,5-a]pyrimidine-3-carboxamide]
9 | 0.53 | 98.2 | O=C1CCN(c2cc(C(=O)N3CCC4(CCC(CN5CCC(n6cc(NC(=O)c7cnn8ccc(N9CCS(=O)(=O)CC9)nc78)c(C(F)F)n6)CC5)CC4)CC3)ccc2Cl)C(=O)N1 [Example 29, N-(1-(1-((3-(4-chloro-3-(2,4-dioxotetrahydropyrimidin-1(2H)-yl)benzoyl)-3-azaspiro[5.5]undecan-9-yl)methyl)piperidin-4-yl)-3-(difluoromethyl)-1H-pyrazol-4-yl)-5-(1,1-dioxothiomorpholinyl) pyrazolo[1,5-a]pyrimidine-3-carboxamide]
10 | 0.72 | 95.7 | O=C1CCN(c2cc(C(=O)N3CCC4(CCC(CCN5CCC(n6cc(NC(=O)c7cnn8ccc(N9CCOCC9)nc78)c(C(F)F)n6)CC5)CC4)CC3)ccc2Cl)C(=O)N1 [Example 20, N-(1-(1-(2-(3-(4-chloro-3-(2,4-dioxotetrahydropyrimidin-1(2H)-yl)benzoyl)-3-azaspiro[5.5]undecan-9-yl)ethyl)piperidin-4-yl)-3-(difluoromethyl)-1H-pyrazol-4-yl)-5-morpholinopyrazolo[1,5-a]pyrimidine-3-carboxamide]
11 | 0.37 | 98 | O=C1CCN(c2cc(C(=O)N3CCC4(CCC(CN5CCC(n6cc(NC(=O)c7cnn8ccc(N9CCOCC9)nc78)c(C(F)F)n6)CC5)CC4)CC3)ccc2F)C(=O)N1 [Example 12, N-(3-(difluoromethyl)-1-(1-((3-(3-(2,4-dioxotetrahydropyrimidin-1(2H)-yl)-4-fluorobenzoyl)-3-azaspiro[5.5]undecan-9-yl)methyl)piperidin-4-yl)-1H-pyrazol-4-yl)-5-morpholinopyrazolo[1,5-a]pyrimidine-3-carboxamide]
12 | 2.17 | 99 | Cc1ccc(C(=O)N2CCC3(CCC(CN4CCC(n5cc(NC(=O)c6cnn7ccc(N8CCC[C@H](N)C8)nc67)c(C(F)F)n5)CC4)CC3)CC2)cc1N1CCC(=O)NC1=O [Example 23, (S)-5-(3-aminopiperidin-1-yl)-N-(3-(difluoromethyl)-1-(1-((3-(3-(2,4-dioxotetrahydropyrimidin-1(2H)-yl)-4-methylbenzoyl)-3-azaspiro[5.5]undecan-9-yl)methyl)piperidin-4-yl)-1H-pyrazol-4-yl)pyrazolo[1,5-a]pyrimidine-3-carboxamide]
